Patent publication US11149062B2, “HDAC inhibitors and methods of treatment using the same” (UWM Research Foundation, Inc., priority 2015, dated 2021)

Assays:
[1] = target: T1, Recombinant human HDAC4 (Homo sapiens, UniProt P56524); test: HDAC-Glo I/II assay, HDAC4; assay type: biochemical; conditions: Class IIa HDAC; compounds reduced by TCEP prior to assay; read-out: IC50 of HDAC4
T1 construct: purchased BPS Bioscience Inc
Protocol: (§1) The purified compounds of all fragments and natural product derivatives were evaluated for inhibitory effects on three different classes of HDAC proteins (class I, IIa, and IIb). […] All activity was determined by using a fluorescence-based in vitro assay. Class I HDAC proteins that were evaluated were HDAC1, HDAC2, HDAC3, HDAC8, HDAC4, and HDAC6. Class IIa HDAC protein were HDAC4 and the Class IIb HDAC protein were HDAC6.
(§2) HDAC-Glo™ I/II Assay and Screening System (Promega) was used to determine the HDAC inhibitory activity. Recombinant human HDAC1, HDAC2, HDAC3, HDAC4, HDAC6 and HDAC8 were purchased from BPS Bioscience Inc. The inhibitory activities of the test compounds against recombinant HDAC were performed according to reagent suppliers' protocols.
(§3) All test compounds were firstly dissolved in DMSO to make 10 mM stock solution. A certain amount of stock solution was diluted to 1 mM by DMSO and then reduced by tris(2-carboxyethyl)phosphine hydrochloride (TCEP) in a molar ration of 1:1.5 for 20 min at ambient temperature prior to being assayed. After reduction, a series of fivefold dilutions of each reduced compound were prepared with HDAC-Glo buffer and 25 μL of each dilution was added into a well on a 96-well plate. HDAC enzymes were diluted to the desired concentrations with HDAC-Glo buffer and 25 μL of each diluted enzyme was dispensed into a well to mix with 25 μL of testing compound at room temperature for 30-60 seconds. After the reaction mixture had been incubated at room temperature for 1 hour, 50 μL of HDAC-Glo reagent was added to each reaction well and mixed up for 30-60 seconds. Finally, the plate was incubated at room temperature for an additional 30 minutes before the luminescence was measured on a Synergy HT plate reader (Bio-Tek). The luminescence intensity data were analyzed using GraphPad Prism 5 (GraphPad Software). In the absence of any test compound, the luminescence intensity (I100) in each data set was defined as 100% activity. In the absence of both of HDAC enzymes and test compound, the luminescence intensity (I0) in each data set was defined as 0% activity. The relative activity (%) in the presence of each compound was calculated according to the following equation: % activity=(I−I0)/(I100−I0), where I=the luminescence intensity if a compound is present in the reaction. Experiments were performed in triplicate and the calculated mean values were used for plotting.

[2] = target: T2, Recombinant human HDAC3 (Homo sapiens, UniProt O15379); test: HDAC-Glo I/II assay, HDAC3; assay type: biochemical; conditions: Class I HDAC; compounds reduced by TCEP prior to assay
T2 construct: purchased BPS Bioscience Inc
Protocol: as §1, §2, §3

[3] = system: HeLa (cervical cancer); test: MTT antiproliferative assay, HeLa; assay type: cell-based; conditions: Homo sapiens, MTT, 48 h, read-out: Antiproliferative Activity GI50, Cervical HeLa
Protocol: Briefly, the tumor cells (1×10^4 cells/well) were seeded in 96-well microtiter plates and incubated for 24 h at 37° C. Following incubation, the media was replaced with fresh media containing the above compounds at concentrations ranging from 1 μM to 1 pM diluted in DMSO and incubated for an additional 48 h. Drugs were run in duplicate or triplicate and control cells received fresh media with DMSO concentration equivalent to the treatment groups. […] After aspirating the culture medium, 200 μL of DMSO was added to dissolve the precipitate and the resulting solution was measured for absorbance at 570 nm with a reference wavelength of 690 nm using a microplate reader (Infinite M200 Pro TECAN).

[4] = target: T3, Recombinant human HDAC6 (Homo sapiens, UniProt Q9UBN7); test: HDAC-Glo I/II assay, HDAC6; assay type: biochemical
T3 construct: purchased BPS Bioscience Inc
T3 sequence (Q9UBN7 1-1215): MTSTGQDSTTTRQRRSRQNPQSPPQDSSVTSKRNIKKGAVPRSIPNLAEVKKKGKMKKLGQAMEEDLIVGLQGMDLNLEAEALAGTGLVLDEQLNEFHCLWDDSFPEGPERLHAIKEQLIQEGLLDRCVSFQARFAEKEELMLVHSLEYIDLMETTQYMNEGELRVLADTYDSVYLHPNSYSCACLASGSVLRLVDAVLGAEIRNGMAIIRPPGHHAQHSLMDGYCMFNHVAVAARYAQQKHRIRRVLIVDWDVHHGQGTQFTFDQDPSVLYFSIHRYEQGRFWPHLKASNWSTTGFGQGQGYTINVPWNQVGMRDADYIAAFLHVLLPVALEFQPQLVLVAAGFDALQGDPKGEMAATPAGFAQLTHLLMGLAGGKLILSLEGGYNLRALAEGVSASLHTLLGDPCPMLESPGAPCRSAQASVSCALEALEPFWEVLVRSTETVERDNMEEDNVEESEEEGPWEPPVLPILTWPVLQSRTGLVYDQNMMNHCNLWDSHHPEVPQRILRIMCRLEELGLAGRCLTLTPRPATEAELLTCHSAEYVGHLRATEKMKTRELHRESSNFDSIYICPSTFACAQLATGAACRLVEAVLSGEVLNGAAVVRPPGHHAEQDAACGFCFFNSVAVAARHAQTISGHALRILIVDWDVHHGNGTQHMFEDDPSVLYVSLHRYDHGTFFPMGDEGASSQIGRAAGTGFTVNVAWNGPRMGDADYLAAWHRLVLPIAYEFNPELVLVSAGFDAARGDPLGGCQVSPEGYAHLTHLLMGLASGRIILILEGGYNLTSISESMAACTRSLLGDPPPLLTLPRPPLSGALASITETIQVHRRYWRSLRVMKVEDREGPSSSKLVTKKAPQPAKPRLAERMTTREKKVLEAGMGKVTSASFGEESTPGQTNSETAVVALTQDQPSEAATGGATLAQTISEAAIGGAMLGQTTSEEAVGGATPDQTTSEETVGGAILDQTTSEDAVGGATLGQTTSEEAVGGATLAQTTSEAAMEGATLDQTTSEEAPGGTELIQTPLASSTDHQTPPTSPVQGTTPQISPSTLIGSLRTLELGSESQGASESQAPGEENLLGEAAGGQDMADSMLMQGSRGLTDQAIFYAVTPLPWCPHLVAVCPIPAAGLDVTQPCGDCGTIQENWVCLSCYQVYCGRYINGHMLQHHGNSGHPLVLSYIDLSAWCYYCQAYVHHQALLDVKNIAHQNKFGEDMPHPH
Protocol: as §1
HDAC-Glo™ I/II Assay and Screening System (Promega) was used to determine the HDAC inhibitory activity. […]
All test compounds were firstly dissolved in DMSO to make 10 mM stock solution. […] Finally, the plate was incubated at room temperature for an additional 30 minutes before the luminescence was measured on a Synergy HT plate reader (Bio-Tek). The luminescence intensity data were analyzed using GraphPad Prism 5 (GraphPad Software). In the absence of any test compound, the luminescence intensity (I100) in each data set was defined as 100% activity. In the absence of both of HDAC enzymes and test compound, the luminescence intensity (I0) in each data set was defined as 0% activity. The relative activity (%) in the presence of each compound was calculated according to the following equation: % activity=(I−I0)/(I100−I0), where I=the luminescence intensity if a compound is present in the reaction. […]

T1 sequence (P56524 whole entry): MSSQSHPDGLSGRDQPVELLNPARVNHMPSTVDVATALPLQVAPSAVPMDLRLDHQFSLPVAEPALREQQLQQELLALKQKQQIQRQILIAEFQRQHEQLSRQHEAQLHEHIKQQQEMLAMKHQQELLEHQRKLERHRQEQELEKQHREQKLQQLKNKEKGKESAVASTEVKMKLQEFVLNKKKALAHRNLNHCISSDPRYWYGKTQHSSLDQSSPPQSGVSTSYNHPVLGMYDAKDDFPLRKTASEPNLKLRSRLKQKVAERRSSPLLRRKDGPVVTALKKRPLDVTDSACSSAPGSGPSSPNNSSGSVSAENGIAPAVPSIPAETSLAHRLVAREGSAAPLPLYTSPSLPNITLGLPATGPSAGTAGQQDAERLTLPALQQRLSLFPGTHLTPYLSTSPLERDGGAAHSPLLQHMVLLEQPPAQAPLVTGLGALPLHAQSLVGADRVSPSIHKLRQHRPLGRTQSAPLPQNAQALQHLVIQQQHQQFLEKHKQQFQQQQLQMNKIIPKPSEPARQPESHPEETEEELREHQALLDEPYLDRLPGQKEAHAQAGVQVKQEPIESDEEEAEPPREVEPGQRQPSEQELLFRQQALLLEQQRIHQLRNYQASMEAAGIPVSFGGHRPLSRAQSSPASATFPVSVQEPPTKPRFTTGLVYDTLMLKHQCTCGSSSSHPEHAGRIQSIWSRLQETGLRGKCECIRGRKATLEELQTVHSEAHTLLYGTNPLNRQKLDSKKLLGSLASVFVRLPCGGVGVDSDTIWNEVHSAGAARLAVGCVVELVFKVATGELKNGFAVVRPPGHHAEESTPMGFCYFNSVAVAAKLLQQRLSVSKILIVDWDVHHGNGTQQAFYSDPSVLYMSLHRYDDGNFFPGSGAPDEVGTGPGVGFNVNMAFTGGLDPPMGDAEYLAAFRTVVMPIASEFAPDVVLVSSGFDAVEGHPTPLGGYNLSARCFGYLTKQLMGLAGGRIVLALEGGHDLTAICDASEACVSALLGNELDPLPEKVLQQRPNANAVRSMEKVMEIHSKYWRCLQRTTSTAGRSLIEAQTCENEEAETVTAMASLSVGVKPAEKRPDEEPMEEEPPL
T2 sequence (O15379 whole entry): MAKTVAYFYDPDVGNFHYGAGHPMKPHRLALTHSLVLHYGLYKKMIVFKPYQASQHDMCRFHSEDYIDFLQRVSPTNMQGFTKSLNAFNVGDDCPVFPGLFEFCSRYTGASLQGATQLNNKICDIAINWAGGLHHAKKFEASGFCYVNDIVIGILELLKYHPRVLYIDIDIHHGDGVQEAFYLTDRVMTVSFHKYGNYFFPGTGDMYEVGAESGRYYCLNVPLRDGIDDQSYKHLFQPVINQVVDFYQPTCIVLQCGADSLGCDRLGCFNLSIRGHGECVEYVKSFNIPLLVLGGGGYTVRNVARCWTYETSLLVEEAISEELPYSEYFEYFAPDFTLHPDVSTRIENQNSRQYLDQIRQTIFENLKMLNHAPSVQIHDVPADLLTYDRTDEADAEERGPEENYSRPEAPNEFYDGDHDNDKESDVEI
T2 sequence (Q9Y618 395-489 partner limits assumed): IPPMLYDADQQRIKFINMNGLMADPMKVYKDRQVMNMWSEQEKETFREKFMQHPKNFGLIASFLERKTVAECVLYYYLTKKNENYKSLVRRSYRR

Question: What does the source list for `COC(=O)[C@H]1CSSCC/C=C/C(O)CC(=O)N[C@H](CCSC)C(=O)N1` (stereo partly drawn) [TDF3m, Methyl (4S,7R,12E)-11-hydroxy-7-[2-(methylsulfanyl)ethyl]-6,9-dioxo-1,2-dithia-5,8-diazacyclopentadec-12-ene-4-carboxylate]?
Answer: IC50 [1]: > 1000 µM; IC50 [2]: 0.623 µM; GI50 [3]: 0.4 µM; inhibitory activity toward HDAC6 (in words) [4]: no inhibitory activity

Question: `CSCC[C@H]1NC(=O)CC(O)/C=C/CCSSC[C@H](C(=O)O)NC1=O` (stereo partly drawn) [TDF3, (4S,7R,12E)-11-hydroxy-7-[2-(methylsulfanyl)ethyl]-6,9-dioxo-1,2-dithia-5,8-diazacyclopentadec-12-ene-4-carboxylic acid] was tested. Which IC50 [1] did it give?
Answer: Its IC50 is greater than 1000 µM.

Question: And the IC50 [2]?
Answer: The IC50 was 0.819 µM.

Question: What about the GI50 [3] of the same molecule?
Answer: The GI50 was 0.6 µM.

Question: What about the “inhibitory activity toward HDAC6 (in words)” value [4] of the same molecule?
Answer: The value was “no inhibitory activity”.
